Numbered stars: 1 amine (or outer) side, 2 acyl side, 3 side chain; on linkers, the order of the positions; unused ones are H or OH. Bridge positions count the residues as written; N and C are the ends. Square brackets hold non-standard residues; d marks the D form. Side chains are listed from the residue outwards. Ends that are not written are not given here. * marks the point of attachment. C18 diacid = O=C(O)CCCCCCCCCCCCCCCCC(=O)*; γGlu = O=C(O)[C@H](CCC(=O)[*:2])N[*:1]; αMeF = C[C@](N)(Cc1ccccc1)C(=O)O
How the values were obtained:
chow fed lean rats = assay: Example 3: acute gastric emptying by X-ray fluoroscopic quantification; format: in vivo, rat; conditions: acute SC
Protocol: Study design: DIO male pair-housed rats fed a 32.5% high-fat diet (D12266B) for 7 weeks reached a mean body weight (BW) of ˜595 g. Rats were dosed SC daily for 28 days with vehicle (Vh), GLP-1/GCG dual agonist (1.5 or 5 nmol/kg), LAA (2.5 or 7.5 nmol/kg), or combination (1.5+2.5 nmol/kg, 1.5+7.5 nmol/kg, 5+2.5 nmol/kg, or 5+7.5 nmol/kg, respectively). Food intake (FI) and BW were measured daily. In chow fed lean rats, gastric emptying (GE) was measured via X-ray fluoroscopic quantification following SC injections of Vh, GLP-1/GCG dual agonist at 1, 3, or 10 nmol/kg or LAA at 1, 3, or 10 nmol/kg. In a subsequent acute GE study, lean rats received a single dose of Vh, GLP-1/GCG dual agonist (2 nmol/kg), LAA (2 nmol/kg) or GLP-1/GCG dual agonist+LAA combination (2+2 nmol/kg). In this experiment, the LAA was that of SEQ ID NO: 11, and the GLP-1/GCG dual-agonist was cotadutide.

DIO rat = assay: Example 3: repeat dose DIO rat gastric emptying study; format: in vivo; conditions: 2 nmol/kg monotherapy, beyond 7 days of treatment
Excerpt: Study Design: […] X-ray fluoroscopic quantification was used to assess gastric emptying. In this experiment, the LAA was that of SEQ ID NO: 11, and the GLP-1R agonist was semaglutide.

Wistar Han rats = assay: Example 4: 3-month subcutaneous study, body weight; format: in vivo, rat; conditions: for Body Weight Comparison, Day 92 vs. Control Group 1 Day 92 / Body Weight Gain (Day 92 vs Day −1) / Mean Body Weight at Day 92: dose levels 2000/0, Group 4
Protocol: Study Design: Male (9-11 weeks of age) and female (10-11 weeks of age) Wistar Han rats were SC administered with Vehicle/Vehicle (group 1—for LAA of SEQ ID NO: 11 and GLP-1/GCG of SEQ ID NO: 35), LAA of SEQ ID NO: 11 and GLP-1/GCG of SEQ ID NO: 35 (group 2—500 and 5 μg/kg respectively), LAA of SEQ ID NO: 11 and GLP-1/GCG of SEQ ID NO: 35 (group 3—2000 and 5 μg/kg respectively), SEQ ID NO: 11 and Vehicle for SEQ ID NO: 35 (group 4—2000 μg/kg and 0 μg/kg respectively), or Vehicle for SEQ ID NO: 11 and SEQ ID NO: 35 (group 5—0 and 5 μg/kg respectively) daily for 91 days. Dosing for LAA of SEQ ID NO: 11 was dose escalated with group 2 receiving 250 μg/kg from day 1-5 and 500 μg/kg for duration of study, and groups 3 and 4 receiving 250 μg/kg SEQ ID NO: 11 from day 1-5, 500 μg/kg SEQ ID NO: 11 from days 7-13 and 2000 μg/kg for duration of study. There was a n=10/group per gender.

[1] = biological target: T1, rat amylin receptor (calcitonin receptor plus RAMP3) (Rattus norvegicus, UniProt P32214+Q9JJ73); assay: Target engagement estimate (unbound Cmax / unbound in vitro potency), amylin receptor; conditions: LAA 30 nmol/kg vs DACRA 10 nmol/kg
T1 construct: expressed in transfected cells; host or cells: HEK293
T1 sequence (P32214 25-516): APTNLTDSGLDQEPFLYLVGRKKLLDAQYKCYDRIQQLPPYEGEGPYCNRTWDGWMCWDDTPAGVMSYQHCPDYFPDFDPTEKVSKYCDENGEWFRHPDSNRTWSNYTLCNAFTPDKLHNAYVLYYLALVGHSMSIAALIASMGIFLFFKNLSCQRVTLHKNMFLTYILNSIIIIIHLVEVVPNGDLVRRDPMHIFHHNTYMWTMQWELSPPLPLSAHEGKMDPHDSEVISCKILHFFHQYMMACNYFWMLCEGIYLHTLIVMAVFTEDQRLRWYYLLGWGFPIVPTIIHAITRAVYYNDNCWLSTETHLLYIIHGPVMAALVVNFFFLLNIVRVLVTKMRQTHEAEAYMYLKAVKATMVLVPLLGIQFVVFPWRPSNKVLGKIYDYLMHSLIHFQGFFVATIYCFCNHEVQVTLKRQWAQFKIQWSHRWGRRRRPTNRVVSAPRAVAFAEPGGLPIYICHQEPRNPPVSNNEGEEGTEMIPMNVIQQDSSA
T1 sequence (Q9JJ73 23-147 partner): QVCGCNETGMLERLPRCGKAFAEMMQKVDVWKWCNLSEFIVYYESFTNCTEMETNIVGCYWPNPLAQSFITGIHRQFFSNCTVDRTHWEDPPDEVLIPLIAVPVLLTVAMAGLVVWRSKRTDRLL
Protocol: Target engagement was estimated in the following way for each compound. The maximum concentration (Cmax) after subcutaneous injection was measured in separate rat pharmacokinetic studies and was dose-adjusted to the tested dose levels when appropriate, assuming dose linearity. Plasma protein binding was determined in vitro using 3B Pharmaceutical's Escalate Equilibrium Shift Assay or an in-house Surface Plasmon Resonance (SPR) assay. Peptide in vitro potency was determined via HTRF CAMP accumulation assay using HEK293 cells recombinantly expressing the rat calcitonin receptor or rat amylin receptor (calcitonin receptor plus RAMP3) in saline buffer containing 0.1% bovine serum albumin. The in vitro potencies (IC50s) for amylin and calcitonin were adjusted to unbound values by taking into account the albumin concentration in the assay and fraction unbound data, according to an established method (Wan H and Bergström F (2007), High Throughput Screening of Drug-Protein Binding in Drug Discovery, Journal of Liquid Chromatography & Related Technologies, 30:5, 681-700; doi: 10.1080/10826070701190989). Finally, the target engagement was calculated as the unbound Cmax divided by the unbound IC50, both for amylin and calcitonin. […] Uncertainty of parameter estimates was determined by bootstrapping, sampling single measurements randomly with replacement within each experiment (N=500). […]

amylin receptor engagement, fold more than DACRA [1]: ~28 fold
Substance: K(γE-γE-C18diacid)[CNTATC]ATQRLANFLRHSSNN(αMePhe)GPILPPTEVGSNTY-amide (K([γGlu-γGlu-C18 diacid])CNTATCATQRLANFLRHSSNN[αMeF]GPILPPTEVGSNTY-NH2; disulfide 2-7) [LAA]
GE AUC as % of Vehicle (chow fed lean rats; 1 nmol/kg): 101%
GE AUC as % of Vehicle (chow fed lean rats; 3 nmol/kg): 34%
GE AUC as % of Vehicle (chow fed lean rats; 10 nmol/kg): 8%
GE delay on repeat dosing (DIO rat): maintained GE delay beyond 7 days of treatment
Body weight at study day 92 vs Vehicle (Wistar Han rats; both male and female, groups 2-5): significantly lower
Body Weight Comparison, Day 92 vs. Control Group 1 Day 92 (Wistar Han rats; female): 89%
Body Weight Gain (Day 92 vs Day −1) (Wistar Han rats; female): 110%
Mean Body Weight at Day 92 (Wistar Han rats; female): 222.1 grams
Body Weight Comparison, Day 92 vs. Control Group 1 Day 92 (Wistar Han rats; male): 79%
Body Weight Gain (Day 92 vs Day −1) (Wistar Han rats; male): 119%
Mean Body Weight at Day 92 (Wistar Han rats; male): 319.2 grams

Source: patent publication US20260091086A1, “POLYPEPTIDE COMBINATIONS AND USES THEREOF” (MEDIMMUNE LIMITED, priority 2024, published 2026)
